Results taken from patent US20250092065A1, “2-(INDAZOL-5-YL)-6-(PIPERIDIN-4-YL)-1,7-NAPHTHYRIDINE DERIVATIVES AND RELATED COMPOUNDS AS MODULATORS FOR SPLICING NUCLEIC ACIDS AND FOR THE TREATMENT OF PROLIFERATIVE DISEASES” (REMIX THERAPEUTICS INC., priority 2022, published 2025).
pIC50: −log10 of the molar value.

How the values were obtained:
Target C [1] = experiment: HiBiT protein abundance assay, Target C (K562 HiBiT knock-in); type: cell-based, human; settings: HiBiT knock-in K562 cells, 24 hours, top dose 10 μM
Summary of the method: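 K562 HiBiT knock-in cells (10000/well) were treated 24 h at 37° C with a 10-point 3-fold dilution series (top 10 μM final, ≤0.25% DMSO). HiBiT luminescence was read after lytic LgBiT detection. Percent response used unmodified K562 and DMSO-treated knock-in controls, and IC50 came from a four-parameter fit at 50% of untreated.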

HTT = experiment: HiBiT protein abundance assay, HTT (K562 HiBiT knock-in); type: cell-based, human; settings: HiBiT knock-in K562 cells, 24 hours, top dose 10 μM
Summary of the method: (§1)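 K562 HiBiT knock-in, 24 h, 37 °C, top 10 μM final, 3-fold ×10, DMSO ≤0.25%. Lytic HiBiT luminescence; PC = parental K562, NC = DMSO; 4PL IC50.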

Target C [2] = experiment: RT-qPCR canonical junction panel assay, Target C mRNA; type: cell-based; settings: Table 4, read-out: Target C IC50 (decrease in CJ mRNA levels)
Summary of the method: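 IC50 is the concentration giving 50% CJ decrease, from a 4-parameter logistic fit of percent response; response derived from ΔΔCt against housekeeper and DMSO over a fixed ΔCt window, with canonical exon-junction qPCR in compound-treated K562 or A673 cells.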

K562 cells = experiment: Cell Titer Glo 2.0 cell viability (toxicity) assay, K562; settings: 500 cells/well, 72 hours
MYB = experiment: HiBiT protein abundance assay, MYB (K562 HiBiT knock-in); type: cell-based, human; settings: HiBiT knock-in K562 cells, 24 hours, top dose 10 μM
Summary of the method: as §1

Structure (SMILES) | pIC50 (Target C [1]) | pIC50 (HTT) | pIC50 (Target C [2]) | Effect of Exemplary Compounds on Cell Viability, K562 (K562 cells) | pIC50 (MYB)
C[C@H]1C[C@H](c2ccc3nc(-c4cc5cn(C)nc5c(F)c4O)ccc3n2)CCN1 (single isomer, unassigned) [Compound 356] | > 7.00 | > 7.00 | 6.00 to 7.00 | A (A represents <100 nM) | > 7.00
Cc1c(O)c(-c2ccc3nc(N4CC[C@H](N[C@H]5C[C@H](F)C5)C4)ccc3n2)cc2cn(C)nc12 (single isomer, unassigned) [Compound 358] | > 7.00 | > 7.00 | 6.00 to 7.00 | B (B represents 100-1000 nM) | > 7.00
Cn1cc2cc(-c3ccc4nc(N5CC[C@@H](N)C5)ccc4n3)c(O)c(F)c2n1 (single isomer, unassigned) [Compound 362] | > 7.00 | > 7.00 | 6.00 to 7.00 | A (A represents <100 nM) | > 7.00
CN[C@@H]1CCN(c2ccc3nc(-c4cc5cn(C)nc5c(C)c4O)ncc3n2)C1 (single isomer, unassigned) [Compound 368] | 6.00 to 7.00 | 6.00 to 7.00 | 5.00 to 6.00 | A (A represents <100 nM) | > 7.00
CN[C@H]1CCN(c2ccc3nc(-c4cc5cn(C)nc5c(C)c4O)ncc3n2)C1 (single isomer, unassigned) [Compound 369] | 6.00 to 7.00 | 6.00 to 7.00 | 5.00 to 6.00 | B (B represents 100-1000 nM) | > 7.00
Cc1nc2c(F)c(O)c(-c3ccc4nc(N5CC[C@H](NC6(CF)CC6)C5)ccc4n3)cc2o1 (single isomer, unassigned) [Compound 373] | > 7.00 | > 7.00 | > 7.00 | A (A represents <100 nM) | > 7.00
Cc1nc2c(C)c(O)c(-c3ccc4nc(N5CC[C@H](NC6(CF)CC6)C5)ccc4n3)cc2o1 (single isomer, unassigned) [Compound 378] | > 7.00 | > 7.00 | > 7.00 | B (B represents 100-1000 nM) | > 7.00
Cc1nc2c(C)c(O)c(-c3ccc4nc(N5CC[C@@H](NC6(CF)CC6)C5)ccc4n3)cc2o1 (single isomer, unassigned) [Compound 379] | 6.00 to 7.00 | > 7.00 | 6.00 to 7.00 | B (B represents 100-1000 nM) | > 7.00
Cn1cc2cc(-c3ncc4nc(N5CC[C@@H](N)C5)ccc4n3)c(O)c(F)c2n1 (single isomer, unassigned) [Compound 380] | 6.00 to 7.00 | > 7.00 | 5.00 to 6.00 | A (A represents <100 nM) | > 7.00
C[C@H]1C[C@@H](c2ccc3nc(-c4cc5cn(C)nc5c(F)c4O)ccc3n2)CCN1 (single isomer, unassigned) [Compound 383] | > 7.00 | > 7.00 | 6.00 to 7.00 | A (A represents <100 nM) | > 7.00
Cn1cc2cc(-c3ccc4nc(C5CCNC[C@H]5O)ccc4n3)c(O)cc2n1 (single isomer, unassigned) [Compound 386] | 5.00 to 6.00 | 5.00 to 6.00 | < 5.00 | C (C represents 1000-9999 nM) | 6.00 to 7.00
Cn1cc2cc(-c3ccc4nc(N5CC[C@@H](NC(C)(C)C)C5)ccc4n3)c(O)c(F)c2n1 (single isomer, unassigned) [Compound 391] | > 7.00 | > 7.00 | > 7.00 | A (A represents <100 nM) | > 7.00
Cn1cc2cc(-c3ccc4nc(N5CC[C@H](NC(C)(C)C)C5)ccc4n3)c(O)c(F)c2n1 (single isomer, unassigned) [Compound 392] | > 7.00 | > 7.00 | > 7.00 | A (A represents <100 nM) | > 7.00
Cc1c(O)c(-c2ncc3nc([C@@H]4CCNC4)ccc3n2)cc2cn(C)nc12 (single isomer, unassigned) [Compound 398] | 5.00 to 6.00 | 5.00 to 6.00 | < 5.00 | C (C represents 1000-9999 nM) | 6.00 to 7.00
Cc1nc2c(C)c(O)c(-c3ccc4nc(N5CC[C@@H](NC6CC6)C5)ncc4n3)cc2o1 (single isomer, unassigned) [Compound 432] | > 7.00 | > 7.00 | > 7.00 | B (B represents 100-1000 nM) | 6.00 to 7.00
Cc1nc2cc(O)c(-c3ccc4nc(N5CC[C@@H](NC6CC6)C5)ncc4n3)cc2o1 (single isomer, unassigned) [Compound 434] | > 7.00 | 6.00 to 7.00 | 6.00 to 7.00 | B (B represents 100-1000 nM) | 6.00 to 7.00
Cc1nc2c(C)c(O)c(-c3ccc4cc(N5CC[C@@H](NC(C)(C)C)C5)ncc4n3)cc2o1 (single isomer, unassigned) [Compound 444] | 6.00 to 7.00 | > 7.00 | 6.00 to 7.00 | B (B represents 100-1000 nM) | > 7.00
Cc1nc2c(C)c(O)c(-c3ccc4cc(N5CC[C@H](NC(C)(C)C)C5)ncc4n3)cc2o1 (single isomer, unassigned) [Compound 445] | 5.00 to 6.00 | 6.00 to 7.00 | 5.00 to 6.00 | C (C represents 1000-9999 nM) | 6.00 to 7.00
Cc1nc2cc(O)c(-c3ccc4nc(N5CC[C@@H](NC6(CF)CC6)C5)ccc4n3)cc2o1 (single isomer, unassigned) [Compound 488] | > 7.00 | > 7.00 | > 7.00 | B (B represents 100-1000 nM) | 6.00 to 7.00
Cc1nc2cc(O)c(-c3ccc4nc(N5CC[C@H](NC6(CF)CC6)C5)ccc4n3)cc2o1 (single isomer, unassigned) [Compound 489] | > 7.00 | > 7.00 | 6.00 to 7.00 | A (A represents <100 nM) | > 7.00
Cc1nc2c(F)c(O)c(-c3ccc4nc(N5CC[C@@H](NC6(CF)CC6)C5)ccc4n3)cc2o1 (single isomer, unassigned) [Compound 491] | > 7.00 | > 7.00 | > 7.00 | A (A represents <100 nM) | > 7.00
Cn1cc2cc(-c3ccc4nc(N5CCC(NC6(CF)CC6)C5)ccc4n3)c(O)c(F)c2n1 (stereo in doubt) [Compound 353, 7-fluoro-5-{6-[(3R)-3-{[1-(fluoromethyl)cyclopropyl]amino}pyrrolidin-1-yl]-1,5-naphthyridin-2-yl}-2-methylindazol-6-ol] | > 7.00 | > 7.00 | > 7.00 | A (A represents <100 nM) | > 7.00
Cn1cc2cc(-c3ccc4nc(N5CCC(NC6(CF)CC6)C5)ccc4n3)c(O)c(F)c2n1 (stereo in doubt) [Compound 357, 7-fluoro-5-{6-[(3S)-3-{[1-(fluoromethyl)cyclopropyl]amino}pyrrolidin-1-yl]-1,5-naphthyridin-2-yl}-2-methylindazol-6-ol] | > 7.00 | > 7.00 | > 7.00 | A (A represents <100 nM) | > 7.00
Cn1cc2cc(-c3ccc4nc(N5CCC(N)C5)ccc4n3)c(O)c(F)c2n1 (stereo in doubt) [Compound 363, 5-{6-[(3R)-3-aminopyrrolidin-1-yl]-1,5-naphthyridin-2-yl}-7-fluoro-2-methylindazol-6-ol] | > 7.00 | > 7.00 | > 7.00 | A (A represents <100 nM) | > 7.00
Cc1nc2c(F)c(O)c(-c3ccc4nc(N5CC[C@@H](N[C@H]6C[C@@H](F)C6)C5)ccc4n3)cc2o1 (stereo in doubt) [Compound 375] | > 7.00 | > 7.00 | > 7.00 | A (A represents <100 nM) | > 7.00
Cc1nc2c(C)c(O)c(-c3ccc4nc(N5CC[C@@H](N[C@H]6C[C@@H](F)C6)C5)ccc4n3)cc2o1 (stereo in doubt) [Compound 376] | > 7.00 | > 7.00 | 6.00 to 7.00 | B (B represents 100-1000 nM) | > 7.00
Cc1nc2c(C)c(O)c(-c3ccc4nc(N5CC[C@H](N[C@H]6C[C@@H](F)C6)C5)ccc4n3)cc2o1 (stereo in doubt) [Compound 377] | > 7.00 | > 7.00 | > 7.00 | B (B represents 100-1000 nM) | > 7.00
